One assay has as its system mTOR. The assay can be described thus: Western blot of p-mTOR/mTOR in P. acnes-stimulated HaCaT cells. In kind it is cell-based, human. Particulars: 25 μM, 24 h pre-treatment. The procedure:
(§1) Western Blot analysis. Whole cell protein extracts (25 μg) were separated by electrophoresis (LDS-PAGE) under denaturing conditions with NuPAGE Novex 4-12% Bis-Tris gel (1 mm, 12 wells, Invitrogen, UK) and proteins were transferred onto nitrocellulose membranes and saturated in 20 ml of saturation buffer consisting of TBS 1× (Tris Buffered Saline) containing 200 mM Tris, 1.4 M NaCl (pH 7.6), 5% no fat milk, 0.1% Tween 20 for 1 h. […] After washing to remove unbound antibodies, bound primary antibodies were detected by incubation for 1 h using secondary antibody against rabbit- and mouse IgG (Santa Cruz Biotechnology, SC-2357, 1:5000 and SC-2005, 1:5000, respectively). Unbound material was removed by washing and peroxidase activity was detected in a chemiluminescence assay (WesternBright ECL, Advansta, Menlo Park, USA). […]

Another assay has as its system PPARβ. The assay can be described thus: Western blot of PPARβ expression in P. acnes-stimulated HaCaT cells. In kind it is cell-based, human. The note with it: 25 μM, 24 h pre-treatment. The procedure: as §1
Another assay deals with IL-1β production. Put plainly: P. acnes-induced IL-1β production in ThP-1 monocytes (ELISA). Type of assay: cell-based. The note with it: Homo sapiens; ThP-1 cells pre-treated 24 h, then stimulated with P. acnes; read-out: IC50 of inhibition of IL-1β production. How it is done: Bacterial strain and conditions of growth. P. acnes strain 6919 was obtained from the American Type Culture Collection (Manassas, Va.) and P. acnes strains RON and PIE were isolated from patient with joint infection. All strains were grown under anaerobic conditions in reinforced clostridial liquid and solid medium (RCM) (Difco Laboratories, Detroit, Mich.). P. acnes was transferred from the bacterial stock onto RCM agar plate and incubated for 5 days under anaerobic condition by using a GasPak™ EZ Anaerobic Container System (Becton Dickinson & Co, Sparks Md., USA). A single colony was transferred into 100 ml RCM and grown as described above. Bacterial suspension was then store frozen at −80° C. in presence of 10% glycerol final. […]
ELISA. Human IL-1β, IL-8, hBD-2 and TNF-α protein concentration were measured in the supernatants of stimulated cells using various ELISA Sets (all from Ready-Set-Go from eBioscience, except hBD-2 measurements: Human DEFB4A/BD-2 ELISA Kit from LSBio) according to the manufacturer's instructions. […] The optical density was determined at 450 nm at a wavelength correction of 540 nm.
Both molecules, were tested to inhibit the production of IL-1β by the monocytic cell line. […] The production of IL-1β was measured on culture supernatant by ELISA and the viability of cells was estimated by MTT assay (FIG. 2).
Background: In an ELISA, binding on a coated surface is turned into a signal by an enzyme label.

Consider `N#CC(c1ccc(Cl)cc1)c1c(Cl)cc(-n2ncc(=O)[nH]c2=O)cc1Cl` (stereo not drawn) [diclazuril, Diclazuril], for which the “phosphorylation of mTOR induced by P. acnes” value in the assay with mTOR was “did not cause any changed”. Also, the “expression of PPARβ” value with PPARβ is reported as “no change”. Besides, in the assay with IL-1β production, the IC50 (in general, the point on the concentration scale where inhibition reaches its midpoint) is roughly 3 µM.

On to `Cc1cccc(CN2CCN(C(c3ccccc3)c3ccc(Cl)cc3)CC2)c1` (stereo not drawn) [meclozine, Meclozine], for which, in the assay with mTOR, the “phosphorylation of mTOR induced by P. acnes” value was “did not cause any changed”. In addition, the “expression of PPARβ” value with PPARβ is reported as “strongly decrease”. The IC50 in the assay with IL-1β production is roughly 6 µM.

The values above are taken from patent publication US11617748B2, “Meclozine derivatives and diclazuril derivatives for use in the prevention and/or the treatment of disorders associated to the inflammation induced by P. acnes” (priority 2016, dated 2023).
